Calls of active or inactive are those of the source. No rule for the calls is given here.
Tested on: CCRIS mutagenicity, Ames/micronucleus/aberration tests
Assay: CCRIS mutagenicity studies

N#Cc1cc(Br)c(O)c(Br)c1
mutagenic call (Test System: AMES SALMONELLA TYPHIMURIUM, Strain/Indicator: TA98, Metabolic Activation: HAMSTER, LIVER, S-9, AROCLOR 1254 (10%), Method: STANDARD PLATE): inactive; negative
mutagenic call (Test System: AMES SALMONELLA TYPHIMURIUM, Strain/Indicator: TA98, Metabolic Activation: NONE, Method: STANDARD PLATE): inactive; negative
mutagenic call (Test System: AMES SALMONELLA TYPHIMURIUM, Strain/Indicator: TA98, Metabolic Activation: RAT, LIVER, S-9, AROCLOR 1254 (10%), Method: STANDARD PLATE): inactive; negative
mutagenic call (Test System: AMES SALMONELLA TYPHIMURIUM, Strain/Indicator: TA100, Metabolic Activation: HAMSTER, LIVER, S-9, AROCLOR 1254 (10%), Method: STANDARD PLATE): inactive; negative
mutagenic call (Test System: AMES SALMONELLA TYPHIMURIUM, Strain/Indicator: TA100, Metabolic Activation: NONE, Method: STANDARD PLATE): inactive; negative
mutagenic call (Test System: AMES SALMONELLA TYPHIMURIUM, Strain/Indicator: TA100, Metabolic Activation: RAT, LIVER, S-9, AROCLOR 1254 (10%), Method: STANDARD PLATE): inactive; negative
mutagenic call (Test System: AMES SALMONELLA TYPHIMURIUM, Strain/Indicator: TA1535, Metabolic Activation: HAMSTER, LIVER, S-9, AROCLOR 1254 (10%), Method: STANDARD PLATE): inactive; negative
mutagenic call (Test System: AMES SALMONELLA TYPHIMURIUM, Strain/Indicator: TA1535, Metabolic Activation: NONE, Method: STANDARD PLATE): inactive; negative
mutagenic call (Test System: AMES SALMONELLA TYPHIMURIUM, Strain/Indicator: TA1535, Metabolic Activation: RAT, LIVER, S-9, AROCLOR 1254 (10%), Method: STANDARD PLATE): inactive; negative
mutagenic call (Test System: AMES SALMONELLA TYPHIMURIUM, Strain/Indicator: TA1537, Metabolic Activation: HAMSTER, LIVER, S-9, AROCLOR 1254 (10%), Method: STANDARD PLATE): inactive; negative
mutagenic call (Test System: AMES SALMONELLA TYPHIMURIUM, Strain/Indicator: TA1537, Metabolic Activation: NONE, Method: STANDARD PLATE): inactive; negative
mutagenic call (Test System: AMES SALMONELLA TYPHIMURIUM, Strain/Indicator: TA1537, Metabolic Activation: RAT, LIVER, S-9, AROCLOR 1254 (10%), Method: STANDARD PLATE): inactive; negative
mutagenic call (Test System: AMES SALMONELLA TYPHIMURIUM, Strain/Indicator: TA1538, Metabolic Activation: HAMSTER, LIVER, S-9, AROCLOR 1254 (10%), Method: STANDARD PLATE): inactive; negative
mutagenic call (Test System: AMES SALMONELLA TYPHIMURIUM, Strain/Indicator: TA1538, Metabolic Activation: NONE, Method: STANDARD PLATE): inactive; negative
mutagenic call (Test System: AMES SALMONELLA TYPHIMURIUM, Strain/Indicator: TA1538, Metabolic Activation: RAT, LIVER, S-9, AROCLOR 1254 (10%), Method: STANDARD PLATE): inactive; negative
mutagenic call (Test System: MOUSE LYMPHOMA, Strain/Indicator: L5178Y (TK+/TK-), Metabolic Activation: RAT, LIVER, S-9, AROCLOR 1254, Method: SUSPENSION/PLATE): active; positive. reevaluation of results: equivocal
mutagenic call (Test System: Mouse lymphoma, Strain/Indicator: L5178Y (tk+/tk-), Metabolic Activation: None, Method: Suspension/plate): inactive; negative

— PubChem BioAssay AID1259407 (Chemical Carcinogenesis Research Information System (CCRIS), 2018)
